Measured values from PubChem BioAssay (NCI).
Values joined by “and” are separate entries in the source; they are usually repeats but may differ in a detail not shown here. Identical values can stand only once.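 Exposure lasted 48 hours, with cells grown in 96-well plates and compounds tested at five concentrations. GI50 = concentration required for 50% inhibition of growth. At the TGI there is no net growth.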

How the values were obtained:
Test in all cases: NCI anticancer screen, dose series, 48 h
[1] = tested on: HCT-15 colon
[2] = tested on: M14 melanoma
[3] = tested on: OVCAR-8 ovarian
[4] = tested on: OVCAR-5 ovarian
[5] = tested on: A549 NSCLC
[6] = tested on: MDA-MB-435
[7] = tested on: HT29 colon
[8] = tested on: CCRF-CEM leukemia

Compound	GI50 [1]	TGI [1]	GI50 [2]	TGI [2]	GI50 [3]	TGI [3]	GI50 [4]	TGI [4]	GI50 [5]	TGI [5]	GI50 [6]	TGI [6]	GI50 [7]	TGI [7]	GI50 [8]	TGI [8] [µM]
Cc1ccn2c3c(c(C(=O)O)c2c1)C(=O)c1ccccc1C3=O	5140 nM	> 100 µM	1110 nM	2.64 µM	> 100 µM	> 100 µM	30.5 µM	> 100 µM	1770 nM	4.4 µM	1570 nM	3.05 µM	4610 nM	> 100 µM	> 100 µM	> 100
CC(C)(C)OC(=O)NC(Cc1ccccc1)C(=O)OCN1C(=O)C2C3C=CC(C2C1=O)C1C2C(=O)N(COC(=O)C(Cc4ccccc4)NC(=O)OC(C)(C)C)C(=O)C2C31 (stereo unspecified)	–	> 100 µM	–	> 100 µM	–	> 100 µM	–	> 100 µM	–	> 73.8 µM	–	> 100 µM	–	> 100 µM	–	> 68.5
COc1ccc(C(=S)N2CCN(c3cccc(Cl)c3)CC2)cc1	> 100000 nM	> 100 µM	> 100000 nM	> 100 µM	> 100 µM	> 100 µM	> 100 µM	> 100 µM	> 100000 nM	> 100 µM	62000 nM	> 100 µM	> 100000 nM	> 100 µM	> 100 µM	> 100
NC(N)=N/N=C(/c1ccccc1)c1ccc(F)cc1	400 nM	13.4 µM	209 nM	0.506 µM	0.593 µM	> 35.1 µM	1.03 µM	18.7 µM	512 nM	> 34.6 µM	203 nM	0.834 µM	300 nM	2.63 µM	0.493 µM	> 74.6
CN(C)CC(=O)N1CCC(c2ccc(NC(=O)c3ncc(C#N)[nH]3)c(C3=CCCCC3)c2)CC1	2710 nM	9.22 µM	2210 nM	4.97 µM	8.34 µM	24 µM	10.8 µM	25.2 µM	5000 nM	17.2 µM	2990 nM	12.6 µM	2800 nM	10.2 µM	7.26 µM	28.5
Cc1nn(-c2ccc(F)cc2)c2ncnc(Nc3ccc(NC(=O)Nc4ccc(Cl)c(C(F)(F)F)c4)cc3)c12	2730 nM	12.5 µM	3030 nM	11.6 µM	2.87 µM	10 µM	2.81 µM	11.9 µM	1800 nM	4.26 µM	3260 nM	12.6 µM	2760 nM	9.82 µM	1.57 µM	13.2
Fc1cccc(COc2ccc(Nc3ncncc3C#Cc3ccccc3)cc2Cl)c1	> 25000 nM	> 25 µM	> 25000 nM	> 25 µM	> 25 µM	> 25 µM	> 25 µM	> 25 µM	> 25000 nM	> 25 µM	> 25000 nM	> 25 µM	> 25000 nM	> 25 µM	> 25 µM	> 25
C[C@@H]1CC[C@@H]2[C@@H]1[C@H](OC(=O)/C=C/c1ccccc1)[C@]1(c3ccccc3)C[C@@H](OC(=O)CO)[C@@]2(C)O1	12700 nM	32.7 µM	16200 nM	35.8 µM	6.71 µM	34.8 µM	15.5 µM	34.5 µM	14800 nM	33.8 µM	14900 nM	33.2 µM	15900 nM	37.8 µM	20.8 µM	84.2
N#Cc1c(NC(=O)c2cccc(C(F)(F)F)c2)sc2c1CCC(=O)C2	337 nM	1.66 µM	525 nM	2.22 µM	1.15 µM	6.97 µM	1.14 µM	3.97 µM	1880 nM	6.03 µM	651 nM	2.11 µM	367 nM	2.47 µM	0.262 µM	> 100
CC(=O)OCC1OC(O[C@@H]2C[C@H]3C(C)(C)[C@H](OC(C)=O)CC[C@]3(C)[C@H]3CCC4=C([C@@H](C)C[C@@H](O)[C@H](O)C(C)(C)O)CC[C@@]4(C)[C@@]32C)C(O)C(O)C1O (stereo partly specified)	17100 nM	30.8 µM	17300 nM	31.4 µM	15.9 µM	29.6 µM	17.7 µM	31.6 µM	19000 nM	33.3 µM	16000 nM	29.5 µM	16600 nM	30.2 µM	15.9 µM	34.1
Clc1ccccc1C(c1ccccc1)(c1ccccc1)n1ccnc1	2580 nM	12.5 µM and 22.7 µM	2230 nM	5.46 µM and 29.8 µM	2.69 µM	20 µM and 26.3 µM	4.05 µM	15.5 µM and 29.8 µM	2430 nM	13.3 µM and 29.3 µM	2400 nM	10.1 µM and 47.4 µM	2240 nM	7.1 µM and 28 µM	–	31.4
Cc1cc2nc3c4cc(Cl)ccc4n(CCN(C)C)c3nc2cc1C	821 nM	4.7 µM	1490 nM	2.93 µM	1.4 µM	6.33 µM	2 µM	5.2 µM	1510 nM	4.17 µM	1690 nM	3.19 µM	1130 nM	3.66 µM	1.22 µM	4.63
O=C(c1cccs1)c1c(C(F)(F)F)n([O-])c2ccccc2[n+]1=O	432 nM	1.1 µM	771 nM	1.58 µM	0.601 µM	1.94 µM	1.04 µM	2.49 µM	1360 nM	3.78 µM	1150 nM	3.5 µM	1080 nM	4.13 µM	6.69 µM	13.1
CCCCCCCCCCCCCC(=S)NCCCC[C@H](NC(=O)OCc1ccccc1)C(=O)Nc1ccccc1	3520 nM	> 100 µM	4660 nM	> 100 µM	4.35 µM	> 100 µM	10.3 µM	> 100 µM	6310 nM	> 100 µM	5300 nM	> 100 µM	5250 nM	> 100 µM	4.04 µM	> 100
COc1cc(/C=C\[N+](=O)[O-])ccc1O	1850 nM	6.03 µM	2050 nM	4.98 µM	3.21 µM	12.1 µM	3.94 µM	14.5 µM	3340 nM	12.7 µM	2160 nM	5.98 µM	2980 nM	10.6 µM	2.25 µM	7.23
CC(CO)(CO)N=Cc1cc(I)cc(I)c1O	–	34.8 µM	–	39.3 µM	–	48.5 µM	–	53.7 µM	–	> 100 µM	–	40.3 µM	–	44.6 µM	–	44.5
CC1(C)N=C(N)N=C(N)N1c1ccc(CCCCc2ccc(S(=O)(=O)F)cc2)cc1	3160 nM	> 100 µM	1160 nM	23.3 µM	1.47 µM	28.6 µM	2.62 µM	> 100 µM	623 nM	> 100 µM	506 nM	17 µM	400 nM	21.3 µM	0.561 µM	19.7
O=C(c1ccc2ccccc2c1)c1c(C(F)(F)F)n([O-])c2cc(Cl)c(Cl)cc2[n+]1=O	1560 nM	2.97 µM	1660 nM	3.04 µM	1.61 µM	3.27 µM	1.65 µM	3.01 µM	1630 nM	2.98 µM	1920 nM	3.56 µM	1490 nM	2.81 µM	2.41 µM	4.78
CC(=O)Nc1cccc(-n2c(=O)n(C3CC3)c(=O)c3c(Nc4ccc(I)cc4F)n(C)c(=O)c(C)c32)c1	650 nM and 864 nM	> 75.3 µM	< 10 nM and 1.73 nM	< 0.01 µM	4.22 µM and > 6.71 µM	> 49.6 µM	< 0.01 µM and 0.00472 µM	29.8 µM and > 10 µM	34.5 nM and 122 nM	> 43.8 µM	< 10 nM and 3.13 nM	25 µM and > 10 µM	< 10 nM and 1.72 nM	15.9 µM and > 10 µM	9.15 µM and > 10 µM	> 100
CC(=O)c1ccc(Nc2cc(-c3ccccc3)nc3c(O)cccc23)cc1	8310 nM	> 100 µM	4580 nM	33.9 µM	19 µM	> 100 µM	54.5 µM	> 100 µM	30600 nM	> 100 µM	23600 nM	65.3 µM	20700 nM	43 µM	5.05 µM	34.6
NC(CO)Cc1cnc[nH]1 (stereo unspecified)	> 100000 nM	> 100 µM	–	> 100 µM	> 100 µM	> 100 µM	–	> 100 µM	> 100000 nM	> 100 µM	> 100000 nM	> 100 µM	> 100000 nM	> 100 µM	> 100 µM	> 100
COc1cc(C(=O)NC2c3ccccc3-c3ccccc32)c(N)cc1OCc1ccccc1	> 74800 nM	> 100 µM	47000 nM	> 100 µM	24.2 µM	> 100 µM	52.5 µM	> 100 µM	17900 nM	> 100 µM	> 100000 nM	> 100 µM	69700 nM	> 100 µM	> 100 µM	> 100
Cc1cc([C@@H](C)Nc2ccccc2C(=O)O)c2nc(N3CCOCC3)cc(=O)n2c1	> 10000 nM	> 10 µM	> 10000 nM	> 10 µM	> 10 µM	> 10 µM	> 10 µM	> 10 µM	> 10000 nM	> 10 µM	> 10000 nM	> 10 µM	> 10000 nM	> 10 µM	> 10 µM	> 10
Oc1ccccc1/C=N/Nc1ccc2ccccc2n1	838 nM	> 100 µM	3650 nM	> 100 µM	4.23 µM	59.1 µM	8.31 µM	> 100 µM	5330 nM	> 100 µM	6420 nM	> 100 µM	9460 nM	> 100 µM	0.862 µM	> 100
COc1ccc(NC(=O)Nc2n[nH]c3ccccc23)cc1	> 100000 nM	> 100 µM	> 100000 nM	> 100 µM	> 100 µM	> 100 µM	> 100 µM	> 100 µM	> 100000 nM	> 100 µM	> 100000 nM	> 100 µM	> 100000 nM	> 100 µM	5.96 µM	> 100
COc1cc2ncn(-c3cc(OCc4ccccc4Cl)c(C(N)=O)s3)c2cc1OC	269 nM	> 25 µM	164 nM	> 25 µM	0.23 µM	> 20.7 µM	0.492 µM	> 25 µM	290 nM	> 10.8 µM	74.5 nM	0.351 µM	92.1 nM	> 25 µM	0.0781 µM	> 10.6
CN1CCN(CC#Cc2cccc(C(=O)c3cnn(-c4ccc(F)cc4)c3N)c2)CC1	> 25000 nM	> 25 µM	> 25000 nM	> 25 µM	> 25 µM	> 25 µM	> 25 µM	> 25 µM	> 25000 nM	> 25 µM	> 25000 nM	> 25 µM	> 19300 nM	> 25 µM	> 25 µM	> 25
COC(=O)C1OC(O[C@H]2CCC3(C)C(CCC4(C)C3CC=C3C5CC(C)(C)CCC5(C(=O)O)CC[C@]34C)C2(C)C)C(O)C(OC2OC(CO)C(O)C(O)C2O)C1O (stereo partly specified)	6570 nM	13.2 µM	6220 nM	11.5 µM	9.96 µM	27.6 µM	7.31 µM	13.5 µM	7220 nM	19.2 µM	13300 nM	> 33.3 µM	12400 nM	> 33.3 µM	5.79 µM	13.1
CN=C(N)N/N=C(\c1ccccc1)c1ccc(Br)cc1	306 nM	7.24 µM	272 nM	0.872 µM	0.369 µM	5.16 µM	0.494 µM	5.62 µM	394 nM	10.1 µM	179 nM	0.511 µM	322 nM	1.72 µM	0.32 µM	4.66
CCn1c(-c2nonc2N)nc2c(C#CCN)ncc(OCCCN)c21	> 25000 nM	> 25 µM	> 25000 nM	> 25 µM	> 25 µM	> 25 µM	> 25 µM	> 25 µM	> 25000 nM	> 25 µM	> 25000 nM	> 25 µM	> 25000 nM	> 25 µM	> 25 µM	> 25
